Publication PMC5059743, “Crystal structures of the human elongation factor eEFSec suggest a non-canonical mechanism for selenocysteine incorporation” (Nature Communications, 2016)
Changes are numbered by the printed parent chain.

Experiments:
Assay in all cases: isothermal titration calorimetry
Type in all cases: binding
human eEFSec [1] = target: T1, human eEFSec (Homo sapiens, UniProt P57772)
T1 construct: intact full-length, N-terminal 6xHis tag (pET15b, no tag removal described), E. coli Lemo21(DE3); monomer in solution; SeMet form also made for phasing
T1 sequence (P57772 1-596): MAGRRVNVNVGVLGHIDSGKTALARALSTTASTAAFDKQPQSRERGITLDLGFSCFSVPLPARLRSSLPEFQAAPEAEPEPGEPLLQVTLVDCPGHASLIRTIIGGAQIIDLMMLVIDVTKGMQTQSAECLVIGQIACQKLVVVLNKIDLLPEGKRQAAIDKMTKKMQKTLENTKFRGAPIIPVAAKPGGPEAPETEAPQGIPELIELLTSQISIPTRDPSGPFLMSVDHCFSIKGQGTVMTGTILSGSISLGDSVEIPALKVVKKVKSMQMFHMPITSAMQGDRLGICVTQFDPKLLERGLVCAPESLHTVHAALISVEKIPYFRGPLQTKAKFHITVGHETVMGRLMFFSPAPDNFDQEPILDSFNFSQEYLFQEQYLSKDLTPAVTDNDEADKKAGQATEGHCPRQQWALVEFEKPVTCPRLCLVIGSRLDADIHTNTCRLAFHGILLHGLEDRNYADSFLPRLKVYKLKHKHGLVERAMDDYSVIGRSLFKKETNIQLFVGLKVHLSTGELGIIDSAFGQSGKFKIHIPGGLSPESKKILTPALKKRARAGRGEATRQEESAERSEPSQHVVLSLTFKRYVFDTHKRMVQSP

human eEFSec [2] = target: T2, human eEFSec (Homo sapiens, UniProt P57772, D92A)
T2 construct: intact full-length, N-terminal 6xHis tag (pET15b, no tag removal described), E. coli Lemo21(DE3); monomer in solution; SeMet form also made for phasing
T2 sequence (P57772 1-596 D92A): T1 sequence (P57772 1-596) with D92A

human eEFSec [3] = target: T3, human eEFSec (Homo sapiens, UniProt P57772, T48A)
T3 construct: intact full-length, N-terminal 6xHis tag (pET15b, no tag removal described), E. coli Lemo21(DE3); monomer in solution; SeMet form also made for phasing
T3 sequence (P57772 1-596 T48A): T1 sequence (P57772 1-596) with T48A

human eEFSec [4] = target: T4, human eEFSec (Homo sapiens, UniProt P57772, H96A)
T4 construct: intact full-length, N-terminal 6xHis tag (pET15b, no tag removal described), E. coli Lemo21(DE3); monomer in solution; SeMet form also made for phasing
T4 sequence (P57772 1-596 H96A): T1 sequence (P57772 1-596) with H96A

| Kd (human eEFSec [1]) [nM] | Kd (human eEFSec [2]) [nM] | Kd (human eEFSec [3]) [nM] | Kd (human eEFSec [4]) [nM] | SMILES |
| --- | --- | --- | --- | --- |
| 480 ± 60 | – | – | – | Nc1nc2c(ncn2[C@@H]2O[C@H](COP(=O)(O)OP(=O)(O)OP(O)(O)=S)[C@@H](O)[C@H]2O)c(=O)[nH]1 [GTPγS] |
| 1210 ± 260 | 8470 ± 490 | 1820 ± 110 | 1600 ± 750 | Nc1nc2c(ncn2[C@@H]2O[C@H](COP(=O)(O)OP(=O)(O)OP(=O)(O)O)[C@@H](O)[C@H]2O)c(=O)[nH]1 [GTP] |
| 1200 ± 470 | – | – | – | Nc1nc2c(ncn2[C@@H]2O[C@H](COP(=O)(O)OP(=O)(O)NP(=O)(O)O)[C@@H](O)[C@H]2O)c(=O)[nH]1 [GDPNP] |
| 190 ± 50 | 1500 ± 130 | 240 ± 50 | 1300 ± 240 | Nc1nc2c(ncn2[C@@H]2O[C@H](COP(=O)(O)OP(=O)(O)O)[C@@H](O)[C@H]2O)c(=O)[nH]1 [GDP] |

| SMILES | Kd (human eEFSec [1]) [nM] | Kd (human eEFSec [2]) [nM] | Kd (human eEFSec [3]) [nM] | Kd (human eEFSec [4]) [nM] |
| --- | --- | --- | --- | --- |
| Nc1nc(O)c2ncn([C@@H]3O[C@H](COP(=O)(O)OP(=O)(O)C[P+]([O-])(O)O)[C@@H](O)[C@H]3O)c2n1 [GDPCP] | 1850 ± 240 | – | – | – |
